The target in assay [1] is PI3K-δ (PI3K(p1108/p857) (h)) (Homo sapiens, UniProt O00329). As to the kind of experiment: Evaluation of inhibitory activity against PI3K-δ (HTRF kinase assay). The format is biochemical. The settings on record: for inhibition at 0.01 µM: compound concentration 0.01 μM, read-out: EXP_VALUE(% Inhibition) PI3K-δ 0.01 μM; for inhibition at 0.1 µM: compound concentration 0.1 μM, read-out: EXP_VALUE(% Inhibition) PI3K-δ 0.1 μM. The method, then:
<Experimental Example 1> Evaluation of Inhibitory Activity Properties Against PI3K-δ
The following experiments were performed to verify the inhibitory activity against PI3K-δ with regard to each of the compounds of Examples 1 to 441 according to the present invention.
PI3K(p1108/p857) (h) was incubated in assay buffer comprising 10 μM phosphatidylinositol-4,5-bisphosphate and Mg/ATP (at a concentration as required). The reaction was initiated by the addition of a Mg/ATP mixture, and after incubation for 30 minutes at room temperature, a stop solution comprising EDTA and phosphatidylinositol-3,4,5-triphosphate was added to stop the reaction and carry out biotinylation.
A detection buffer comprising Eu (europium)-labelled anti-GST monoclonal antibody, GST-tagged GRP1 PH domain and streptavidin-allophycocyanin was added. A plate was read in a time-resolved fluorescence mode and a homogeneous time-resolved fluorescence (HTRF) signal was determined according to HTRF=10000×(Em 665 nm/Em 620 nm).
A general note: In TR-FRET formats the signal depends on donor and acceptor labels being close together.

The target in assay [2] is DNA-PK(h) (Homo sapiens, UniProt P78527). The experiment in a line: Evaluation of inhibitory activity against DNA-PK (HTRF kinase assay, GST-cMyc-p53 substrate). The class given is biochemical. Conditions: for inhibition at 0.01 µM: compound concentration 0.01 μM, read-out: EXP_VALUE(% Inhibition) DNA-PK(h) 0.01 μM; for inhibition at 0.1 µM: compound concentration 0.1 μM, read-out: EXP_VALUE(% Inhibition) DNA-PK(h) 0.1 μM. The method, then: <Experimental Example 2> Evaluation of Inhibitory Activity Properties Against DNA-PK
The following experiments were performed to verify the inhibitory activity against DNA-PK with regard to each of the compounds of Examples 1 to 441 according to the present invention.
DNA-PK(h) was subjected to an isothermal treatment in an assay buffer comprising […] GST-cMyc-p53 and Mg/ATP (at a concentration as required). The reaction was initiated by the addition of a Mg/ATP mixture, and after incubation for 30 minutes at room temperature, a stop solution comprising EDTA was added to stop the reaction. A detection buffer comprising d2-labelled anti-GST monoclonal antibody and Europium-labelled anti-phospho Ser15 antibody for phosphorylated p53 was added. A plate was read in a time-resolved fluorescence mode and a homogeneous time-resolved fluorescence (HTRF) signal was determined according to HTRF=10000×(Em 665 nm/Em 620 nm).

The values that follow come from US20230072683A1, “PYRIDO-PYRIMIDIN DERIVATIVES AND PHARMACEUTICAL COMPOSITION, FOR USE IN PREVENTING OR TREATING PI3 KINASE RELATED DISEASES, COMPRISING SAME AS ACTIVE INGREDIENT” (BORYUNG PHARMACEUTICAL CO., LTD, priority 2019, published 2023).

Chain of PI3K-δ (PI3K(p1108/p857) (h)) (O00329 whole entry): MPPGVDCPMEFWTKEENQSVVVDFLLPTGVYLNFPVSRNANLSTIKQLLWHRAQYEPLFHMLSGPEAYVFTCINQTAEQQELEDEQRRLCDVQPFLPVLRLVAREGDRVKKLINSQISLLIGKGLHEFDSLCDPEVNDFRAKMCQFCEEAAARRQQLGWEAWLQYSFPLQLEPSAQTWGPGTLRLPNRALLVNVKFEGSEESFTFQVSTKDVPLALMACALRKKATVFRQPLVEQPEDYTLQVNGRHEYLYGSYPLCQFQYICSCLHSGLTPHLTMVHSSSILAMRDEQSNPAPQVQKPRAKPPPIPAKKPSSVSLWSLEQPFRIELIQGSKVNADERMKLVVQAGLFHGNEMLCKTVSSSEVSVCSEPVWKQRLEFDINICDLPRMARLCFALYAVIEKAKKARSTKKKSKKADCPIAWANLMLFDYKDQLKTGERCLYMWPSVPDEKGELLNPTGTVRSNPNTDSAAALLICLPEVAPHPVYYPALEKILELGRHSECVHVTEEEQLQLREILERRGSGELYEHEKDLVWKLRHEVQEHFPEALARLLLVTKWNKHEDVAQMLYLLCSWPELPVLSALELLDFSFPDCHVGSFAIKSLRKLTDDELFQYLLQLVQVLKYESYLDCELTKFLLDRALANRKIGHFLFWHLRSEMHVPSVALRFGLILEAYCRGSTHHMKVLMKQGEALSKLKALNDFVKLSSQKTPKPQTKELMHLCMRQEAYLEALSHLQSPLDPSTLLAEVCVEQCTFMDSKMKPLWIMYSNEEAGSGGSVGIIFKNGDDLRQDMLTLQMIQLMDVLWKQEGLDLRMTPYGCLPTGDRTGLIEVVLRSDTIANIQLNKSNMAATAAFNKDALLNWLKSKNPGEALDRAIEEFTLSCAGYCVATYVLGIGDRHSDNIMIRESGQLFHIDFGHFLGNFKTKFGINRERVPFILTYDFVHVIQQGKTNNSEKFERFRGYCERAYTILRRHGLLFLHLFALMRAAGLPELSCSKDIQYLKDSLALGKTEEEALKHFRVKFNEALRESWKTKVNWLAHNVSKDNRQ
Chain of PI3K-δ (PI3K(p1108/p857) (h)) (P27986 whole entry partner): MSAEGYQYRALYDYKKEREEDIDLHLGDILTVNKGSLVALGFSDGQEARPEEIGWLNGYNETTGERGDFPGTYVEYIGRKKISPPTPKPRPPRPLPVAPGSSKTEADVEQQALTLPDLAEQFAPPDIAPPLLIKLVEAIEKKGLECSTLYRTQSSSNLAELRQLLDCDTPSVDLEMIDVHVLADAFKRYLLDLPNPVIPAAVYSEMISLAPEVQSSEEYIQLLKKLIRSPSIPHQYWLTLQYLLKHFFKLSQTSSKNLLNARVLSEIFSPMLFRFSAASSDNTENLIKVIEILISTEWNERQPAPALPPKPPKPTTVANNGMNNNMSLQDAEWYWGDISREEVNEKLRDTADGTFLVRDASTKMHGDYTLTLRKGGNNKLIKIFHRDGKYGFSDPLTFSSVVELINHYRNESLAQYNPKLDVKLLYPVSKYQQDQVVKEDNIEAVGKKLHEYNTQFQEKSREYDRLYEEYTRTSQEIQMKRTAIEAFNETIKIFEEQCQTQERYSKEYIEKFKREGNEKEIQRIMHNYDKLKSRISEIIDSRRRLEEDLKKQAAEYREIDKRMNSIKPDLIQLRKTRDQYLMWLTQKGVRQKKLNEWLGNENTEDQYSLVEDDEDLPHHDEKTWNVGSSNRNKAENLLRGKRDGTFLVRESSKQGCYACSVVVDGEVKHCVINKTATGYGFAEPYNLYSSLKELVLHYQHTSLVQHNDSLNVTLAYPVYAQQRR

One may read the inhibition as the relative decrease from the control value, in per cent. Turning to `CON=C(C)c1cccc2c(Cl)c([C@H](C)Nc3ncnc4[nH]ccc(=O)c34)n(-c3ccccc3)c(=O)c12` (stereo in doubt) [Example 270, (S,Z)-4-((1-(4-chloro-8-(1-(methoxyimino)ethyl)-1-oxo-2-phenyl-1,2-dihydroisoquinolin-3-yl)ethyl)amino)pyrido[2,3-d]pyrimidin-5(8H)-one], the inhibition at 0.01 µM came to 63% in assay [1] and 60% in assay [2].

On to `C[C@H](Nc1ncnc2[nH]ccc(=O)c12)c1c(Br)c2cccc(Cl)c2c(=O)n1-c1ccccc1` [Example 1, (S)-4-((1-(4-bromo-8-chloro-1-oxo-2-phenyl-1,2-dihydroisoquinolin-3-yl)ethyl)amino)pyrido[2,3-d]pyrimidin-5(8H)-one], for which, in assay [1], the inhibition at 0.01 µM came out at 105% and the inhibition at 0.1 µM worked out at 104%. In assay [2], the inhibition at 0.01 µM turned out to be 52% and the inhibition at 0.1 µM worked out at 91%.

Consider `C[C@H](Nc1ncnc2[nH]ccc(=O)c12)c1c(Cl)c2cccc(B3OC(C)(C)C(C)(C)O3)c2c(=O)n1-c1ccccc1` [Example 2, (S)-4-((1-(4-chloro-1-oxo-2-phenyl-8-(4,4,5,5-tetramethyl-1,3,2-dioxaborolan-2-yl)-1,2-dihydroisoquinolin-3-yl)ethyl)amino)pyrido[2,3-d]pyrimidin-5(8H)-one], for which the inhibition at 0.01 µM in assay [1] was found to be 42%; in assay [2] it was 56%. The inhibition at 0.1 µM was 94% in assay [1] and 89% in assay [2].

For the molecule `C[C@H](Nc1ncnc2[nH]ccc(=O)c12)c1c(Cl)c2cccc(-c3ccc(-n4cccc4)nc3)c2c(=O)n1-c1ccccc1` [Example 3, (S)-4-((1-(8-(6-(1H-pyrrol-1-yl)pyridin-3-yl)-4-chloro-1-oxo-2-phenyl-1,2-dihydroisoquinolin-3-yl)ethyl)amino)pyrido[2,3-d]pyrimidin-5(8H)-one], the figures for the inhibition at 0.01 µM in assay [1] and in assay [2] were 69% and 44%, respectively.

For the molecule `C[C@H](Nc1ncnc2[nH]ccc(=O)c12)c1c(Cl)c2cccc(-c3cccnc3)c2c(=O)n1-c1ccccc1` [Example 4, (S)-4-((1-(4-chloro-1-oxo-2-phenyl-8-(pyridin-3-yl)-1,2-dihydroisoquinolin-3-yl)ethyl)amino)pyrido[2,3-d]pyrimidin-5(8H)-one], the inhibition at 0.01 µM was found to be 101% in assay [1] and 53% in assay [2]. The inhibition at 0.1 µM was determined as 109% in assay [1] and 99% in assay [2].

In the case of `C[C@H](Nc1ncnc2[nH]ccc(=O)c12)c1c(Cl)c2cccc(-c3cnn(C)c3)c2c(=O)n1-c1ccccc1` [Example 5, (S)-4-((1-(4-chloro-8-(1-methyl-1H-pyrazol-4-yl)-1-oxo-2-phenyl-1,2-dihydroisoquinolin-3-yl)ethyl)amino)pyrido[2,3-d]pyrimidin-5(8H)-one], in assay [1], the inhibition at 0.01 µM came to 106% and the inhibition at 0.1 µM stood at 115%. In assay [2], the inhibition at 0.01 µM came to 69% and the inhibition at 0.1 µM worked out at 100%.

Consider `C[C@H](Nc1ncnc2[nH]ccc(=O)c12)c1c(Cl)c2cccc(-c3cc4ccccc4o3)c2c(=O)n1-c1ccccc1` [Example 6, (S)-4-((1-(8-(benzofuran-2-yl)-4-chloro-1-oxo-2-phenyl-1,2-dihydroisoquinolin-3-yl)ethyl)amino)pyrido[2,3-d]pyrimidin-5(8H)-one], for which, in assay [1], the inhibition at 0.01 µM came to 74% and the inhibition at 0.1 µM is 95%. For the same molecule, in assay [2], the inhibition at 0.01 µM came to 25% and the inhibition at 0.1 µM turned out to be 74%.

On to `C[C@H](Nc1ncnc2[nH]ccc(=O)c12)c1c(Cl)c2cccc(N3CCc4ccccc4C3)c2c(=O)n1-c1ccccc1` [Example 7, (S)-4′-chloro-3′-(1-((5-oxo-5,8-dihydropyrido[2,3-d]pyrimidin-4-yl)amino)ethyl)-2′-phenyl-3,4-dihydro-1H-(2,8′-biisoquinolin)-1′(2′H)-one], for which the inhibition at 0.01 µM was found to be 77% in assay [1] and 26% in assay [2]. For the same molecule, the values for the inhibition at 0.1 µM in assay [1] and in assay [2] were 108% and 62%, respectively.

`C[C@H](Nc1ncnc2[nH]ccc(=O)c12)c1c(Cl)c2cccc(N3CC4CC=CCC4C3)c2c(=O)n1-c1ccccc1` (stereo partly drawn) [Example 8, 4-(((1S)-1-(4-chloro-1-oxo-2-phenyl-8-(3a, 4,7,7a-tetrahydro-1H-isoindol-2 (3H)-yl)-1,2-dihydroisoquinolin-3-yl)ethyl)amino)pyrido[2,3-d]pyrimidin-5(8H)-one]: in assay [1], the inhibition at 0.01 µM turned out to be 36% and the inhibition at 0.1 µM amounted to 76%. In assay [2], the inhibition at 0.01 µM was 12% and the inhibition at 0.1 µM was 28%.

In the case of `C[C@H](Nc1ncnc2[nH]ccc(=O)c12)c1c(Cl)c2cccc(N3CCN(c4ccncc4)CC3)c2c(=O)n1-c1ccccc1` [Example 9, (S)-4-((1-(4-chloro-1-oxo-2-phenyl-8-(4-(pyridin-4-yl)piperazin-1-yl)-1,2-dihydroisoquinolin-3-yl)ethyl)amino)pyrido[2,3-d]pyrimidin-5(8H)-one], in assay [1], the inhibition at 0.01 µM was determined as 50% and the inhibition at 0.1 µM came out at 61%. In addition, in assay [2], the inhibition at 0.01 µM was 60% and the inhibition at 0.1 µM was 92%.

`C[C@H](Nc1ncnc2[nH]ccc(=O)c12)c1c(Cl)c2cccc(N3CCC(N4CCCCC4)CC3)c2c(=O)n1-c1ccccc1` [Example 10, (S)-4-((1-(8-([1,4′-bipiperidin]-1′-yl)-4-chloro-1-oxo-2-phenyl-1,2-dihydroisoquinolin-3-yl)ethyl)amino)pyrido[2,3-d]pyrimidin-5(8H)-one]: in assay [1], the inhibition at 0.01 µM turned out to be 40% and the inhibition at 0.1 µM came to 70%. Further, in assay [2], the inhibition at 0.01 µM was 15% and the inhibition at 0.1 µM came to 73%.

Regarding `C[C@H](Nc1ncnc2[nH]ccc(=O)c12)c1c(Cl)c2cccc(N3CCN(C4CCN(C)CC4)CC3)c2c(=O)n1-c1ccccc1` [Example 11, (S)-4-((1-(4-chloro-8-(4-(1-methylpiperidin-4-yl)piperazin-1-yl)-1-oxo-2-phenyl-1,2-dihydroisoquinolin-3-yl)ethyl)amino)pyrido[2,3-d]pyrimidin-5(8H)-one], the inhibition at 0.01 µM in assay [1] came out at 21%; in assay [2] it was 18%. Further, the inhibition at 0.1 µM in assay [1] came to 61%; in assay [2], 53%.

For `C[C@H](Nc1ncnc2[nH]ccc(=O)c12)c1cc2cccc(-c3cccnc3)c2c(=O)n1-c1ccccc1` [Example 12, (S)-4-((1-(1-oxo-2-phenyl-8-(pyridin-3-yl)-1,2-dihydroisoquinolin-3-yl)ethyl)amino)pyrido[2,3-d]pyrimidin-5(8H)-one], in assay [1], the inhibition at 0.01 µM worked out at 102% and the inhibition at 0.1 µM amounted to 114%. Moreover, in assay [2], the inhibition at 0.01 µM was determined as 6% and the inhibition at 0.1 µM was 21%.

`Cc1ccc(-c2cccc3cc([C@H](C)Nc4ncnc5[nH]ccc(=O)c45)n(-c4ccccc4)c(=O)c23)cn1` [Example 13, (S)-4-((1-(8-(6-methylpyridin-3-yl)-1-oxo-2-phenyl-1,2-dihydroisoquinolin-3-yl)ethyl)amino)pyrido[2,3-d]pyrimidin-5(8H)-one]: in assay [1], the inhibition at 0.01 µM came out at 35% and the inhibition at 0.1 µM was determined as 101%. In assay [2], the inhibition at 0.01 µM came out at 3% and the inhibition at 0.1 µM was 18%.

In the case of `C[C@H](Nc1ncnc2[nH]ccc(=O)c12)c1cc2cccc(-c3ccc(F)cc3)c2c(=O)n1-c1ccccc1` [Example 14, (S)-4-((1-(8-(4-fluorophenyl)-1-oxo-2-phenyl-1,2-dihydroisoquinolin-3-yl)ethyl)amino)pyrido[2,3-d]pyrimidin-5(8H)-one], the inhibition at 0.01 µM in assay [1] was 105%; in assay [2], 8%. The results for the inhibition at 0.1 µM in assay [1] and in assay [2] were 107% and 27%, respectively.

With `C[C@H](Nc1ncnc2[nH]ccc(=O)c12)c1cc2cccc(-c3cnn(C)c3)c2c(=O)n1-c1ccccc1` [Example 15, (S)-4-((1-(8-(1-methyl-1H-pyrazol-4-yl)-1-oxo-2-phenyl-1,2-dihydroisoquinolin-3-yl)ethyl)amino)pyrido[2,3-d]pyrimidin-5(8H)-one], the figures for the inhibition at 0.01 µM in assay [1] and in assay [2] were 109% and 24%, respectively. In addition, the values for the inhibition at 0.1 µM in assay [1] and in assay [2] were 108% and 37%, respectively.

As to `C[C@H](Nc1ncnc2[nH]ccc(=O)c12)c1c(Cl)c2cccc(-c3ccc(C(F)(F)F)cc3)c2c(=O)n1-c1ccccc1` [Example 68, (S)-4-((1-(4-chloro-1-oxo-2-phenyl-8-(4-(trifluoromethyl)phenyl)-1,2-dihydroisoquinolin-3-yl)ethyl)amino)pyrido[2,3-d]pyrimidin-5(8H)-one], in assay [2], the inhibition at 0.01 µM came to 48% and the inhibition at 0.1 µM amounted to 73%.
